Results from paper PMC12164071, “Lysine targeting covalent inhibitors of malarial kinase PfCLK3” (RSC Medicinal Chemistry, 2025).
Where “and” joins values, the source holds several entries; their conditions need not be identical. Equal values may be shown once. Entries after “also recorded” stand apart in the source; their conditions may differ.

Legend:
[1] = test system: PfCLK3; assay: Tryptic digest and tandem mass spectrometry of PfCLK3 adducts; format: binding, Plasmodium falciparum; conditions: PfCLK3 pretreated with compound, trypsin digest, tandem MS
Excerpt: PfCLK3 pretreated with either compound 4 or 9 was then digested with trypsin, and the resulting tryptic peptides analysed by tandem mass spectrometry (Fig. 4d and e). This subset of compounds sampled azaindole regioisomers as well as both aldehyde warheads used. […] However, possible modification of a peptide containing Lys494 and Lys503 was also observed. This is a curious result, as a secondary adduct was not observed in the intact spectrum. Lys503 is distal from the ATP binding site, whereas Lys494 lies at its entrance. Adduct formation may be occurring with Lys494 as 4 approaches the binding-site.
This is consistent with the intact mass spectrum, which detected a doubly modified species in ∼20% abundance versus the singly modified protein. […]
For intact protein mass spectrometry, compounds were incubated with a 5-fold excess of compound in buffer containing 20 mM HEPES pH 7.4, 150 mM NaCl, 1 mM TCEP, and 1 mM MgCl 2. […] Samples were incubated at room temperature for 4 hours before 10 μL alliquots were analysed by LC-MS. […]
The resulting peptide mixture was analyzed by high resolution nESI FT-ICR MS using a 12 Telsa Solarix 2XR mass spectrometer (Bruker Daltonics) equipped with a nanomate infusion robot (Advion Biosciences). […]

[2] = test system: PfCLK3 kinase domain (amino acid residues 334–699); assay: Intact protein LC-MS for covalent adduct formation; format: binding, Plasmodium falciparum; conditions: for covalent adduct formation with PfCLK3 kinase domain: pH 7.4, 1:5 protein to compound ratio
Description: All compounds were then evaluated for covalent binding with PfCLK3 kinase domain (amino acid residues 334–699) using intact protein LC-MS (Fig. 3). Compounds were incubated at pH 7.4 in a 1 : 5 protein to compound ratio and analysed for covalent adduct formation using ESI TOF. […] Compounds 8 and 9 yielded a fully modified species at 43 957 Da, which can be attributed to the mass of the apo protein + the mass of the pyridinium product adduct. A minor mass (20–25%) of 44 378 Da was also detected, consistent with a doubly modified PfCLK3 kinase domain. This implies that cross reactivity with non-catalytic lysine residues is possible using the ethynyl benzaldehyde functionality, although a minor product. […]
dialyzing the protein into a final buffer containing 20 mM HEPES pH 7.4, 150 mM NaCl, 1 […]
PfCLK3 kinase domain (residues 334–699 with a C-terminal TEV cleavage sequence and His6-tag) was cloned into pFastBac vector and expressed and purified from Sf21 insect cells.
Cells were infected using P2 BIICs at an MOI of 0.2 and left to express for 72 h. Harvested cells were lysed and centrifuged before purifying using IMAC and SEC in a final buffer containing 20 mM HEPES pH 7.4, 150 mM NaCl, 1 mM TCEP, and 1 mM MgCl2.
Protein Mass Spectrometry
For intact protein mass spectrometry, compounds were incubated with a 5-fold excess of compound in buffer containing 20 mM HEPES pH 7.4, 150 mM NaCl, 1 mM TCEP, and 1 mM MgCl 2. 5 μL of kinase domain (1 mg/mL) was added to 25 μL of buffer before 0.12 μL of compound in a 10 mM DMSO stock was added to start the incubation. Samples were incubated at room temperature for 4 hours before 10 μL alliquots were analysed by LC-MS.
Intact protein LC-MS experiments were performed on a Synapt G2 Q-ToF instrument equipped with electrospray ionisation (Waters Corp., Manchester, UK). LC separation was achieved using an Acquity UPLC equipped with a reverse phase C4 Aeris Widepore 50 × 2.1 mm HPLC column (Phenomenex, CA, USA) and a gradient of 5–95% acetonitrile (0.1% formic acid) over 10 minutes was employed. Data analysis was performed using MassLynx v4.1 and deconvolution was performed using MaxEnt. […]

[3] = Human cell viability assay (resazurin); conditions: HepG2, 48 hours, errors SD, N ≥ 3
Description: Cytotoxicity was assessed in HepG2 cells to complement the selectivity evaluations (Fig. 7). […]
Human cell viability assay.
Mycoplasma tested HepG2 cells were cultured in Dulbecco’s Modified Eagle Medium
(DMEM) with 10% fetal bovine serum, 1% non-essential AA, 1% sodium pyruvate, 1% Pen-
strep and 100ug/mL Normocin. Cultures were incubated at 37 ℃, 5% CO2. Cells were
detached using 0.05% trypsin-EDTA. 500nL of drug compound dilutions, in triplicate, were
added to 384-well, black, clear bottom assay plates using a Mosquito liquid handling
machine. Assay plates, containing compound dilutions, were seeded at 5,000 cells/well and
incubated for 48 hours. 40uM final concentration resazurin, diluted in DPBS, was added to
the assay plates which were then incubated for 4 hours and analysed using a ClariostarTM
plate reader to measure fluorescence Intensity (545-20nm/600-40nm). 3 control compounds
were included on every assay plate, Tamoxifen, Puromycin and TCMDC-135051. Maximum
signal control was obtained from wells with DMSO only and minimum signal control with
Tamoxifen 100uM. These were used to normalise data and give percentage inhibition of
metabolic activity. Experiments were performed N=3 and normalised data was grouped and a
nonlinear regression curve with four parameters was plotted using GraphPad Prism,
generating activity data. […]

[4] = pH 7.4, 1:5 protein to compound, 4 hours room temperature, compound 4 with C-terminal His-tag construct

Structure (SMILES)	site of modification [1]	partial covalent bond formation, modification ([2]; imine adduct)	covalent adduct formation with PfCLK3 kinase domain [2]	Relative Ratio, assignment apo [2, 4]	Relative Ratio, assignment holo (singly modified) [2, 4]	CC50 at 48 h ([3]; CC50 (HepG2)) [µM]	CC50 at 48 h ([3]; pCC50 (HepG2)) [µM]	doubly modified PfCLK3 kinase domain, minor mass abundance ([2]; 44 378 Da species)	Relative Ratio, assignment holo (doubly modified) ([2]; pH 7.4, 1:5 protein to compound, 4 hours room temperature)
CCN(CC)Cc1ccc(OC)c(-c2cc3c(-c4ccc(O)c(C=O)c4)ccnc3[nH]2)c1 [Compound 4]	Lys394 was the predominant site of modification	32–60%	showed covalent adduct formation; also recorded: formed a covalent adduct with PfCLK3	40	60	5.25 ± 2.47	5.25	–	–
C#Cc1ccc(-c2c[nH]c3ncc(-c4cc(CN(CC)CC)ccc4OC)cc23)cc1C=O [Compound 9]	pyridinium modification was observed in peptides containing both the target Lys394, and Lys373	–	showed covalent adduct formation; also recorded: formed a covalent adduct with PfCLK3	–	80	7.94 ± 1.29	7.94	20–25% and ~20%	20
